Results as given in patent publication US20070074300A1, “Sialidase inhibitors for the treatment of cardiovascular disease” (priority 2005, published 2007).

Legend:
ApoE KO mice [1] = test: Serum glucose and serum/lipoprotein cholesterol in apoE KO mice treated with sialidase inhibitor; format: in vivo, mouse; conditions: vs saline control, FIG. 8
Method: Control mice received daily injections of saline. Data reveal significant reductions in serum glucose levels, and total and LDL cholesterol. P<0.01.
Plasma was prepared from heparinized blood collected by cardiac puncture (Covey et al 2003). Serum was collected from blood using serum separators (Becton Dickenson). Serum was submitted to the Clinical Diagnostic Laboratory at the McMaster University Medical Centre for analyses of standard metabolic parameters including total cholesterol, LDL cholesterol and glucose. Lipoproteins from plasma were separated by size by fast protein liquid chromatography (FPLC) using an AKTA system (Amersham Biosciences, Inc.) with a Superose 6 HR 10/30 column, as described previously (Covey et al 2003). The total cholesterol content in each fraction was assayed using an enzymatic assay kit from Thermo DMA. Lipoproteins (VLDL, LDL and HDL) from human plasma were run as controls to calibrate the column.
The inhibitor, N-Acetyl-2,3-dehydro-2-deoxyneuraminic acid (ADDN), was obtained from Sigma Chemical Company (St. Louis, Mo.). ApoE KO mice were ˜6 weeks of age at the beginning of the study. The mice were randomized into 2 groups of 6. The control group received daily i.p injections of 0.9% saline (0.1 ml/day for […]). The experimental group received daily i.p. injections of 0.9% saline (0.1 ml per day) containing either 0.1 or 0.4 ug ADDN for 7 days. Serum was collected on day 7 and serum glucose, total cholesterol and LDL levels were measured.

ApoE KO mice [2] = test: Atherosclerosis (aortic sinus lesion area and volume) in apoE KO mice treated with sialidase inhibitor; format: in vivo, mouse; conditions: male apoE KO mice aged 7 months, mini-osmotic pump 1.5 micro-g/day for 6 weeks, vs saline
Method: FIG. 9 illustrate a morphometric evaluation of atherosclerotic lesion area (A) and volume (B) in the aortic sinus of male ApoE−/− mice treated for 6 weeks with the sialic acid inhibitor ADDN (N-Acetyl-2,3-dehydro-2-deoxyneuraminic acid). Mice aged 7 months were treated for 6 weeks with either saline or the sialic acid inhibitor ADDN. (n=8 in each case). A third group of mice was euthanized at the beginning of the experiment so that the level of atherosclerosis at the time that treatment was initiated could be measured (Base, n=9). Atherosclerotic lesion cross sectional areas in the aortic root (A) and lesion volumes (B) were measured. Values are the averages ±standard error of the mean. Lesion progression was reduced in ADDN-treated mice compared to saline controls. […]
For diet-induced atherosclerosis, mice were fed (beginning four weeks after transplantation) with a high fat, Western-type diet (Covey et al 2003) obtained from Dyets, Inc. (Bethlehem Pa.). […] Atherosclerotic plaque cross sectional area was measured by morphometry using Axiovision software (Carl Zeiss Canada, Inc). A total of eight sections lying at 0.1 mm intervals along the aortic sinus were analyzed for each mouse. […] The volume of atherosclerotic plaque was therefore calculated as the sum of the volumes determined for each 0.1 mm portion of the aortic sinus. […]

[3] = tested on: differentiated human THP-1 macrophages; test: IL-6 production by differentiated THP-1 macrophages in culture (ELISA); format: cell-based; conditions: differentiated THP-1 macrophages incubated 3 days with varying concentrations; IL-6 in culture supernatant by ELISA; FIG. 7
Method: The effects of a sialidase inhibitor, N-acetyl-2,3-dehydro-2-deoxyneuraminic acid (ADDN), on the production of the inflammatory cytokine interleukin-6 (IL-6) by differentiated human THP-1 macrophages in culture was measured.
FIG. 7 illustrates that the inhibition of sialidase activity suppresses production of the pro-atherogenic cytokine IL-6 in differentiated THP-1 macrophages. Differentiated THP-1 macrophages were incubated for 3 days with the varying concentrations of the sialidase inhibitor ADDN. Levels of the cytokine IL-6 in samples of the cell culture supernatant were quantified by ELISA. Data are presented as the mean±standard deviation of triplicate experimental groups. (* denotes significant difference, P<0.001).

[4] = daily i.p. 0.1 or 0.4 ug for 7 days

For `CC(=O)N[C@H]1[C@H]([C@H](O)[C@H](O)CO)OC(C(=O)O)=C[C@@H]1O` [ADDN, N-Acetyl-2,3-dehydro-2-deoxyneuraminic acid], the LDL cholesterol (ApoE KO mice [1]; [4]) was “significantly less”, the serum glucose (ApoE KO mice [1]; [4]) was “significantly decreased” and the serum total cholesterol (ApoE KO mice [1]; [4]) was “significantly less”. The HDL cholesterol (ApoE KO mice [1]; daily i.p. injections) was “significantly less”, the “growth of atherosclerotic plaque cross sectional area from baseline” value (ApoE KO mice [2]; aortic root, FIG. 9A) was “substantially inhibited” and the “growth of atherosclerotic plaque volume from baseline” value (ApoE KO mice [2]; aortic sinus, FIG. 9B) was “substantially inhibited”. For the same molecule, the “production of the inflammatory cytokine IL-6” value [3] was “reduced production of IL-6”.
